The text below walks through data of PubChem BioAssay AID179 (DTP/NCI, 2004).

Calls of active or inactive are those of the source.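 How the source made its calls: active means compounds giving half or more protection of infected cells from virus-caused growth loss, again on retest; inactive means the rest.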

The test system of the assay is CEM cells HIV-1 protection, formazan growth assay. As to the kind of experiment: NCI AIDS Antiviral Assay. Conditions: for IC50: measured here: growth of uninfected CEM cells. A digest of the protocol: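 Human CEM cells, uninfected and HIV-1-infected, exposed to five drug concentrations; growth measured by soluble formazan assay and scored as percent protection from infection, with protecting compounds retested.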

With `C[n+]1c2ccccc2n2c3ccccc3c(NCc3ccco3)c(C#N)c21`, the EC50 (usually the concentration at which the effect is half-maximal) is over 20 µM and the IC50 (commonly the concentration needed to halve the response being measured) amounted to 1.48 µM.

Consider `CC(C)N(CCCNc1c2ccccc2nc2cccc([N+](=O)[O-])c12)C(C)C`, for which the EC50 is over 200 µM and the half-inhibitory concentration (IC50) worked out at 0.0631 µM.

Take `Cc1cnc2c(c1)CCCC2C(N)=S` (stereo not given): the outcome was inactive.

For `CCOC(=O)C1=C(C)NC(=O)NC1c1ccccc1` (stereo not given), the EC50 was over 200 µM and the half-inhibitory concentration (IC50) is over 200 µM.

With `N#CCCn1c(CCC(=O)Nc2ccc(Cl)cc2Cl)n[nH]c1=S`, the EC50 is 66.1 µM and the IC50 turned out to be 97.7 µM.

Consider `CCCc1cc(=O)oc2c3c(cc(OC(C)COC)c12)O[C@H](C)[C@@H](C)C3=O` (stereo not given in full), for which the EC50 was over 77.6 µM and the concentration for half-maximal inhibition (IC50) came out at 13.8 µM.

With `COc1cc(/C=C2\Sc3scc(-c4cccc([N+](=O)[O-])c4)[n+]3C2=O)cc(OC)c1OC`, the EC50 was over 200 µM and the IC50 was determined as 9.77 µM.

For the compound `COc1cc(O)c2c(=O)c(OC)c(-c3ccc(OC)c(OC)c3)oc2c1.[Co]`, the EC50 was over 100 µM and the IC50 came to 56.2 µM.

Take `CC(=O)OC1CC(OC(C)=O)[C@@]2(C)C[C@@H]3C(C)C(=O)O[C@H]3CC(C)C12` (stereo not given in full): the EC50 was over 74.1 µM and the 50% inhibitory concentration (IC50) amounted to 42.7 µM.

As for `Cc1ccc(NC=O)cc1F`, the result was inactive.

With `O=c1c2ccccc2[nH]c(=S)n1-c1ccc(Br)cc1`, the EC50 was over 40.7 µM and the IC50 was over 40.7 µM.

On to `Cc1cc([N+](=O)[O-])c2c(c1)P(=O)(O)c1cc(C)cc([N+](=O)[O-])c1O2`, for which the EC50 was over 200 µM and the concentration for half-maximal inhibition (IC50) is over 200 µM.

With `COC(=O)/C=C/c1c(=O)c(C(=O)OC)cn2cnc3nc[nH]c3c12`, the EC50 was over 50.1 µM and the half-maximal inhibitory concentration (IC50) is over 50.1 µM.

For `CC(C)(C)OC(=O)CC(NC(=O)OCc1ccccc1)NC(=O)OC(C)(C)C` (stereo not given), the EC50 is over 200 µM and the half-maximal inhibitory concentration (IC50) was over 200 µM.

On to `O=C(O)c1ccc(C2COc3ccc(Cl)cc3C2)cc1` (stereo not given), for which the EC50 is over 174 µM and the IC50 was found to be 105 µM.

With `CCOC(=O)CCC(NC(=O)c1ccc(N=Cc2nc3ccccc3nc2-c2ccccc2)cc1)C(=O)OCC` (stereo not given), the EC50 is over 12.6 µM and the half-maximal inhibitory concentration (IC50) is over 12.6 µM.

As to `NC(CC1=CS(=O)(=O)c2ccc(Cl)cc21)C(=O)O` (stereo not given), the EC50 is over 200 µM and the IC50 is over 200 µM.

Take `Cc1ccc(-c2c(C#N)c(-c3ccc(C)cc3)n(NS(=O)(=O)c3ccccc3)c(=O)c2C#N)cc1`: the EC50 was over 200 µM and the 50% inhibitory concentration (IC50) was found to be 22.9 µM.

Turning to `COc1ccc(SCc2ccc(C(=O)O)cc2[N+](=O)[O-])cc1`, the EC50 was over 295 µM and the IC50 stood at 162 µM.

Regarding `N#Cc1ccc(CSC2=C(c3ccc(Cl)cc3)S/C(=C3\SC(SCc4ccc(C#N)cc4)=C(c4ccc(Cl)cc4)S3)S2)cc1`, the EC50 is over 100 µM and the IC50 is over 100 µM.

As to `O=c1[nH]ccc2c1ccn2C1CC(O)C(CO)O1` (stereo not given), the result was inactive.

As to `COC(=O)c1cc(C(=CCCN=[N+]=[N-])c2cc(Br)c(OC)c(C(=O)OC)c2)cc(Br)c1OC`, the EC50 was 3.24 µM and the half-maximal inhibitory concentration (IC50) came to 93.3 µM.

Regarding `Cc1ccc2[nH]c(=O)c(C(C#N)c3ccccc3)nc2c1` (stereo not given), the result was inactive.

Take `C[n+]1c2ccccc2n2c3ccccc3c(NCCCN3CCOCC3)c(C#N)c21`: the EC50 was over 20 µM and the IC50 was 0.676 µM.

Turning to `CC1=C2C(=CC(C)(CO)C2O)C(=O)C(C)(O)C12CC2` (stereo not given), the outcome was inactive.

On to `COc1cc(/C=C2\CCC(C)/C(=C\c3cc(OC)c(OC)c(OC)c3)C2=O)cc(OC)c1OC` (stereo not given), for which the EC50 was over 200 µM and the IC50 worked out at 7.24 µM.

With `COc1nc(C)nc2sc3c(c12)CCCC3`, the EC50 is over 100 µM and the IC50 is over 100 µM.

In the case of `C(=C\P(c1ccccc1)c1ccccc1)/P(/C=C/P(c1ccccc1)c1ccccc1)c1ccccc1`, the EC50 was over 4.9 µM and the IC50 is over 4.9 µM.

As to `N#CC1CC(c2cccs2)Nc2ccccc2N1` (stereo not given), the EC50 was over 141 µM and the IC50 is 46.8 µM.

For the compound `NS(=O)(=O)c1ccc(NC(=S)/N=C\c2c(O)[nH]c(=O)[nH]c2=O)cc1`, the EC50 was over 200 µM and the IC50 was over 200 µM.

With `CC(c1ccccc1)N1OC1(c1ccccc1)c1ccccc1` (stereo not given), the EC50 was over 105 µM and the IC50 was determined as 14.5 µM.

As to `COC(=O)C(=O)C(C(C)=O)C(=O)C(=O)Nc1ccc(C)cc1C` (stereo not given), the EC50 is over 112 µM and the half-inhibitory concentration (IC50) was over 112 µM.

Take `COC(=O)C1=C(C)N2CCSC2(C)C(C(=O)OC)C1c1cccc(Cl)c1` (stereo not given): the EC50 was over 200 µM and the half-maximal inhibitory concentration (IC50) was 42.7 µM.

In the case of `CC(C)(C)CC(C)(C)c1cc2c(O)c(c1)Cc1cc(C(C)(C)CC(C)(C)C)cc(c1O)Cc1cc(C(C)(C)CC(C)(C)C)cc(c1O)Cc1cc(C(C)(C)CC(C)(C)C)cc(c1O)Cc1cc(C(C)(C)CC(C)(C)C)cc(c1O)Cc1cc(C(C)(C)CC(C)(C)C)cc(c1O)C2`, the EC50 is over 7.24 µM and the concentration for half-maximal inhibition (IC50) is over 7.24 µM.

In the case of `Cc1ccccc1Nc1nc2ccccc2nc1NS(=O)(=O)c1ccccc1`, the EC50 was over 200 µM and the concentration for half-maximal inhibition (IC50) is over 200 µM.

Take `CC(=O)Oc1cc2oc(=O)cc(C)c2cc1OC(C)=O`: the result was inactive.

`CCC12OC(=O)C34CC(C(=O)N(CCc5c3[nH]c3ccccc53)C41)C2I` (stereo not given): the result was inactive.

For the compound `O=c1ccc2cc3ccoc3c(OCCCCCCBr)c2o1`, the EC50 is over 75.9 µM and the concentration for half-maximal inhibition (IC50) came to 30.9 µM.

Turning to `COc1ccc(C2C(Cl)C(=O)N2n2cnc3ccccc3c2=O)cc1` (stereo not given), the EC50 was over 3.8 µM and the IC50 was over 3.8 µM.

Turning to `Cc1ccc(C2=NOC(=O)[C@@H]3CCCC[C@@H]23)cc1`, the EC50 was over 200 µM and the IC50 is 97.7 µM.

On to `CCN(CC)C(=C(C(Cl)=C(Cl)Cl)[N+](=O)[O-])N(CC)CC`, for which the EC50 is over 200 µM and the IC50 was found to be 117 µM.

On to `CCN(CC)C1=CC(=O)n2cccc21`, for which the EC50 is over 200 µM and the IC50 was over 200 µM.

`N#CC[P+](c1ccccc1)(c1ccccc1)c1ccccc1`: the EC50 was over 200 µM and the IC50 was determined as 141 µM.

On to `CCCc1cc(=O)[nH]c2c3c(c4c(c12)OC(C)(C)C=C4)O[C@H](C)[C@@H](C)[C@@H]3O`, for which the EC50 was 0.12 µM and the half-maximal inhibitory concentration (IC50) stood at 2 µM.

Take `CN(C)c1nc(N)c(C#N)c(C#N)c1C#N`: the EC50 is over 200 µM and the concentration for half-maximal inhibition (IC50) worked out at 8.71 µM.

As to `N#CCC(=O)NCCc1c[nH]c2ccccc12`, the EC50 is over 200 µM and the IC50 is over 200 µM.

Consider `O=c1c(-c2ccccc2)c(SCCO)n(-c2ccccc2)c(=S)n1-c1ccccc1`, for which the EC50 is over 200 µM and the IC50 is over 200 µM.

For the compound `Cc1ccc(C2=Nn3c(nc4sc(-c5ccccc5)cc4c3=O)SC2)cc1`, the EC50 was over 100 µM and the IC50 is over 100 µM.

On to `Cc1cn(C2CC(O)C(CN(O)CCC3CC(n4cc(C)c(=O)[nH]c4=O)OC3CO)O2)c(=O)[nH]c1=O` (stereo not given), for which the EC50 is over 200 µM and the IC50 is over 200 µM.

As to `CN(C)c1ccc(-c2c(C#N)c(N)[nH]c(=S)c2C#N)cc1`, the EC50 is over 126 µM and the 50% inhibitory concentration (IC50) was 50.1 µM.

On to `Cc1cc(NC(=O)c2ccc(N)cc2)ccc1N=Nc1ccc2c(O)c(N=Nc3ccc(S(=O)(=O)O)cc3C)c(S(=O)(=O)O)cc2c1`, for which the EC50 was 34.7 µM and the IC50 was over 200 µM.
